Data: PMC5017749, “Preclinical Metabolism, Pharmacokinetics and In Vivo Analysis of New Blood-Brain-Barrier Penetrant Fingolimod Analogues: FTY720-C2 and FTY720-Mitoxy” (PLoS ONE, 2016)

Assays:
[1] = Metabolic stability (intrinsic clearance) in mouse liver microsomes; type: in vitro ADME, mouse (CD-1); details: for percent of the remaining compound: after 60 minute incubation
Method: (§1) Liver microsomal incubations contained 0.1mg/mL microsomal proteins and 1 μM of FTY720-C2 or FTY720-Mitoxy in 100 mM potassium phosphate buffer (pH 7.4) ± an NADPH regenerating system (3.5 mM glucose 6-phosphate, 1.3 mM NADP^+, and 0.4 units/mL glucose-6-phosphate dehydrogenase). Following incubations, reactions were terminated for analysis after 0, 10, 20, 30, and 60 min by the addition of acetonitrile containing C17 sphingosine (300 ng/mL) as the internal standard. Samples were vigorously mixed and centrifuged at 3,400 rpm for 10 min to pellet precipitated proteins. An aliquot of each supernatant was used for LC/MS analysis, for determination of the remaining FTY720-C2 and FTY720-Mitoxy. Similar incubations were performed using a cocktail solution containing 0.2 μM midazolam and 1 μM diclofenac to determine the metabolic activity of the microsomes as an additional control.
(§2) Samples resulting from liver microsomal incubations were analyzed by LC-MS/MS. Aliquots of the supernatants were injected onto an X-Bridge C18 column (2.1 × 50 mm, 3.5-μm particles) (Waters, Milford, MA), preceded by a SecurityGuard C18 guard column (4.0 × 2.0 mm; Phenomenex Inc.). Separations were accomplished with a gradient of 0.1% acetic acid in water (v/v) versus 0.1% acetic acid in acetonitrile: methanol (75:25, v/v) at a rate of 0.8 mL/min. The eluents were further applied into an equipped API 4000 QTrap mass spectrometer (AB Sciex, Foster City, CA) with electrospray ionization (ESI) interface by two coupled LC-10 AT pumps. Peak area ratios of FTY720-C2 or FTY720-Mitoxy against the C17 sphingosine internal standard were used to determine the amount of parent remaining compared to that at 0 min. The percent of FTY720-C2 or FTY720-Mitoxy remaining was calculated by dividing the peak area ratio obtained at each time point by that obtained at 0 min. The in vitro intrinsic clearance (CLint) was calculated by linear regression of the log percent of compound remaining versus time plots using Microsoft Excel, two independent experiments (n = 2) were performed for each compound and species. Then, the mean and standard deviation (SD), of two values for each condition, were calculated using Microsoft Excel with the “AVERAGE” and “STDEV” functions, respectively.

[2] = Metabolic stability (intrinsic clearance) in rat liver microsomes; type: in vitro ADME, rat (Sprague-Dawley); details: for microsomal CLint at 1 μM: Sprague-Dawley, pH 7.4, 0.1 mg/mL protein, mean of two determinations; for microsomal CLint at 1 μM / intrinsic clearance interpreted in words / percent of the remaining compound: rat liver microsomes; for percent of the remaining compound: after 60 minute incubation; for Clint in rat liver microsomes relative to human liver microsomes: rat vs human liver microsomes
Method: as §1, §2

[3] = Metabolite profiling and identification in rat hepatocytes; type: in vitro ADME, rat (Sprague Dawley); parameters: key to Source (peak identified in rat hepatocytes): R = Rat; hr = Human; lowercase letter indicates low abundance; h: lowercase letter indicates low abundance; details: for phosphorylated metabolites / parent peak after 2 hr incubation: rat hepatocytes; for parent peak after 2 hr incubation: 1 μM
Method: (§3) Cryopreserved hepatocytes were grown in culture and incubations were performed to generate samples to measure the formation of FTY720-C2 and FTY720-Mitoxy metabolites. Incubations of 1 mL medium containing 1 million cells and 1 μM of FTY720-C2 and FTY720-Mitoxy were conducted at 37° C in a 5% CO2 incubator for 0, 1 and 2 hr, with gentle shaking. Positive control incubations used a cocktail solution containing 10 μM testosterone and 10 μM diclofenac performed for 0, 1 and 2 hr, under similar conditions to confirm the metabolic activity of the hepatocytes. The reactions were terminated by adding 2 mL acetonitrile containing 0.02% formic acid, and thoroughly mixing with gentle vortexing. Samples were transferred into 6 mL vials and stored in the freezer (-70°C) overnight for protein precipitation. Following overnight precipitations, samples were centrifuged at 3,000 rpm for 10 min to pellet proteins. Supernatants were transferred into clean 6 mL vials and evaporated to dryness using a TurboVap concentrator system. Samples were reconstituted using 600 μL 20% acetonitrile in water, briefly vortexed to resuspend, then aliquoted for LC-MS/MS analysis. Controls incubations also included “No drug control” and “no cell control” samples treated in a similar manner as test article samples.
(§4) Metabolite profiling and identification experiments were conducted by LC-MS/MS, composed of an HPLC system consisting of an Agilent Technologies 1200 Series Model G1322A Degasser, Agilent Technologies 1200 Series Model G1312A Binary Pump, Shimadzu HTc autosampler, and Valco Model E60 Flow Diversion Valve, and coupled to an API 4000 mass spectrometer. Separations were accomplished on a Gemini C18 column (150 × 2.0 mm, 5-μm particles; Phenomenex Inc., Torrance, CA), preceded by a SecurityGuard C18 guard column (4.0 × 2.0 mm; Phenomenex Inc.). A two-component mobile phase, consisted of a linear gradient of water containing 0.5% formic acid (v/v) and methanol:acetonitrile (1:1, v/v) containing 0.5% formic acid (v/v), was pumped at 0.3 mL/min. The first 4 min of flow was diverted away from the mass spectrometer. Analysis of the positive control samples was conducted with an HPLC system consisting of two Shimadzu LC-10ATvp pumps and a LEAP Pal autosampler. Separations were accomplished on a Luna C8(2) column (50 × 2.0 mm, 3-μm particles; Phenomenex Inc., Torrance, CA), preceded by a SecurityGuard C18 column (4.0 × 2.0 mm; Phenomenex Inc.). Separation was accomplished with a gradient of water containing 0.2% formic acid and 0.012% NH4OH (v/v) versus acetonitrile at an initial rate of 0.7 mL/min. An API 4000 QTrap mass spectrometer (AB Sciex, Foster City, CA) was used for analysis of positive control samples. Each mass spectrometer used was equipped with an electrospray ionization source and operated in the positive ionization mode. Metabolite identification experiments were performed by recording full scan mass spectral data (Q1MS) for all samples, and selected samples were analyzed to obtain product ion spectra (MS/MS) of test article metabolites identified in the full scan mass spectral data.

[4] = Metabolite profiling and identification in human hepatocytes; type: in vitro ADME; parameters: key to Source (peak identified in human hepatocytes): R = Rat; hr = Human; lowercase letter indicates low abundance; h: lowercase letter indicates low abundance; details: for phosphorylated metabolites / parent peak after 2 hr incubation: human hepatocytes; for parent peak after 2 hr incubation: 1 μM
Method: as §3, §4

[5] = Metabolic stability (intrinsic clearance) in dog liver microsomes; type: in vitro ADME, dog (Beagle); details: for microsomal CLint at 1 μM: Beagle; for percent of the remaining compound: after 60 minute incubation
Method: as §1, §2

[6] = Metabolic stability (intrinsic clearance) in human liver microsomes; type: in vitro ADME; details: for percent of the remaining compound: after 60 minute incubation; for microsomal CLint at 1 μM: pH 7.4, 0.1 mg/mL protein, mean of two determinations
Method: as §1, §2

[7] = FTY720-Mitoxy incubation, Table 5

Structure (SMILES) | intrinsic clearance interpreted in words ([1]; mouse liver microsomes) | percent of the remaining compound ([1]; mouse liver microsomes) [%] | microsomal CLint at 1 μM [2] [µL/min/mg] | intrinsic clearance interpreted in words [2] | percent of the remaining compound [2] [%] | Clint in rat liver microsomes relative to human liver microsomes [2] | phosphorylated metabolites [3] | parent peak after 2 hr incubation [3] | phosphorylated metabolites [4] | parent peak after 2 hr incubation [4] | intrinsic clearance interpreted in words ([5]; dog liver microsomes) | percent of the remaining compound ([5]; dog liver microsomes) [%] | intrinsic clearance interpreted in words [6] | percent of the remaining compound [6] [%] | microsomal CLint at 1 μM [6] [µL/min/mg] | further results
CCCCCCCCc1ccc(CCC(CO)(CO)NC(=O)CC[P+](c2ccccc2)(c2ccccc2)c2ccccc2)cc1 [FTY720-Mitoxy, N-(1-hydroxy-2-(hydroxymethyl)-4-(4-octylphenyl)butan-2-yl)-3’-triphenylphosphoniumpropanamide] | low | 82.5 ± 16.3 | 7.8 ± 1.98 | low | 65.5 ± 4.9 | around half | never detected | most FTY720-Mitoxy was still unchanged | never detected | most FTY720-Mitoxy was still unchanged | low | 112.5 ± 5.0 | moderate | 35.5 ± 2.3 | 17.5 ± 1.7 | microsomal CLint at 1 μM ([1]; CD-1, mouse, liver microsomes, pH 7.4, mouse liver microsomes, 0.1 mg/mL protein, 1 μM, mean of two determinations): 1.8 µL/min/mg; Clint (intrinsic clearance) ([1]; mouse liver microsomes, 0.1 mg/mL protein, 1 μM, mean of two determinations): 1.75 ± 1.34 µL/min/mg; Source (peak identified in rat hepatocytes) [3, 7]: R; Source (peak identified in human hepatocytes) [4, 7]: H; microsomal CLint at 1 μM ([5]; dog, liver microsomes, pH 7.4, dog liver microsomes, 0.1 mg/mL protein, 1 μM, mean of two determinations): 1.4 µL/min/mg; Clint (intrinsic clearance) ([5]; dog liver microsomes, 0.1 mg/mL protein, 1 μM, mean of two determinations): 1.35 ± 1.48 µL/min/mg
CCCCCCCCc1ccc(CCC(CO)(CO)NC(C)=O)cc1 [FTY720-C2, N-(1-hydroxy-2-(hydroxymethyl)-4-(4-octylphenyl)butan-2-yl)acetamide] | moderate | 29.5 ± 2.1 | 79.5 ± 1.41 | high | 1.0 ± 0 | ~ 4 fold | never detected | drastically diminished | never detected | more gradual | low | 69.9 ± 0.6 | moderate | 33.5 ± 4.5 | 18.3 ± 2.4 | microsomal CLint at 1 μM ([1]; CD-1, pH 7.4, mouse liver microsomes, 0.1 mg/mL protein, 1 μM, mean of two determinations): 22.5 ± 2.12 µL/min/mg; Source (peak identified in rat hepatocytes) ([3]; FTY720-C2 incubation, Table 4): R; Source (peak identified in human hepatocytes) ([4]; FTY720-C2 incubation, Table 4): H; microsomal CLint at 1 μM ([5]; pH 7.4, dog liver microsomes, 0.1 mg/mL protein, 1 μM, mean of two determinations): 6 ± 0.28 µL/min/mg
